“Also recorded” adds a separate entry of the source.
Key:
[1] = tested on: mouse myoblast cell line (C2C12 cells); test: Thickness of myotubes differentiated from mouse myoblasts, muscle reduction induced by dexamethasone; assay type: cell-based
Method: First, differentiation of myotubes from mouse myoblasts was induced. A mouse myoblast cell line (C2C12 cells) was purchased from ATCC (Manassas, Va., USA) and used. The purchased cells were inoculated in 10% fetal bovine serum media (Gibco-BRL) and incubated in a 5% CO2 incubator at 37° C. When the confluency of the cells attached to the media became 80% or higher, the cells were transferred to 2% horse serum media (Gibco-BRL) to differentiate myoblasts into myotubes.
For two days (48 hours) from day 4 after differentiation into myotubes started to be induced, the media were treated with 50 μM dexamethasone (dexa; Sigma Aldrich, USA) to induce muscle reduction. […] As a non-treated control, cells treated with only dexamethasone and not treated with ethyl vanillin were used.
After completion of the incubation, the cells were washed twice with phosphate buffered saline (PBS), and then fixed by treatment with 100% methanol for 10 minutes. […]
The stained myotubes were photographed using a fluorescence microscope (IX 71, Olympus) at a magnification of 10×, and then analyzed using image J software (USA). Six sections were randomly selected from each well and micrographed, and the thickness of at least 100 myotubes from each well was analyzed (three repetitions/group).

[2] = tested on: animal model with high-fat-diet-induced muscle loss; test: Four limb hanging test in mice fed a high-fat diet; assay type: in vivo, C57BL/6N mice; conditions: 0.2% ethyl vanillin in high-fat diet, week 10
Method: A normal diet group (Chow) was fed commercial rodent chow. Ethyl vanillin was purchased from Sigma-Aldrich. [table] To measure the limb muscle strength of mice, the time that the mice hung upside down using their four feet was measured at week 10 of breeding. The time (seconds) that the mice hung upside down in a cage equipped with a wire mesh cover (diameter<0.5 cm) (20×30×50 cm, Jeung-Do Bio & Plant Co., Ltd, Korea) was measured a total of three times, and a rest period of 30 minutes or longer was given between measurements. Experimental results were obtained by multiplying hanging time (sec) by body weight (kg). The statistical analysis of all data was performed using the Statistical Package for the Social Sciences (SPSS version 21.0, IBM, Armonk, N.Y., USA), and analysis values were expressed as mean±SEM, and a significant difference between groups was verified by ANOVA.

[3] = cited from earlier work
MaFbx/atrogin 1 = test: mRNA expression level by RT-PCR in myotubes; assay type: cell-based, mouse; conditions: ethyl vanillin with dexamethasone vs dexamethasone control
Method: (§1) After completing the incubation of all experimental groups and the control, cells of each group were obtained, 334 μl of a TRIzol solution per 1×10^7 myotubes was added and replaced, followed by centrifugation at 12,000×g and 4° C. for 10 minutes. Thereafter, the supernatant was transferred to a new tube and 67 μl of chloroform was added thereto, followed by mixing by vortexing. The supernatant in the mixed solution was transferred again to a new tube, and isopropanol was added thereto in a ratio of 1:1 (v:v) of isopropanol to supernatant, followed by vigorous shaking about 10 times and being left at room temperature for 15 minutes. Once again, centrifugation was carried out at 12,000×g and 4° C. for 10 minutes to remove a supernatant, and 1 ml of 70% ethanol was added to the precipitate, followed by centrifugation at 7,500×g and 4° C. for 5 minutes to remove the ethanol, and the tubes were dried at room temperature for 15 minutes. Finally, precipitated RNA was dissolved in nuclease free water to obtain RNA extracted from the cells. The concentration of RNA was identified by measuring absorbance at wavelengths of 260 nm and 280 nm using a UV/VIS spectrometer, and was subjected to electrophoresis to confirm the integrity of RNA samples.
(§2) Reverse transcription-polymerase chain reaction (RT-PCR) was performed using the prepared RNA samples. The obtained RNA samples were used as templates and reverse transcription was performed using oligo dT primers and SuperScript Reverse Transcriptase (GIBCO BRL, Gaithersburg, Md., USA) to synthesize cDNA. The synthesized cDNA was used as a template and PCR was performed using primer pairs (forward primers and reverse primers) shown in Table 1 below. Each primer was constructed based on the 5′ and 3′ flanking sequence of cDNA of the template gene to be amplified. After PCR was completed, 1 μl of each amplified PCR product was subjected to electrophoresis on agarose gel to confirm generated DNA bands.

Myostatin = test: mRNA expression level by RT-PCR in myotubes; assay type: cell-based, mouse; conditions: ethyl vanillin with dexamethasone vs dexamethasone control
Method: as §1, §2

MuRF1 = test: mRNA expression level by RT-PCR in myotubes; assay type: cell-based, mouse; conditions: ethyl vanillin with dexamethasone vs dexamethasone control
Method: as §1, §2

p-p70S6K1 protein = test: Protein expression level by Western blotting in myotubes; assay type: cell-based, mouse; conditions: ethyl vanillin with dexamethasone vs dexamethasone control
Method: (§3) After completing the incubation of all experimental groups and the control, the media were removed and a lysis buffer was added to each well to lyse the cells. As the lysis buffer, a 100 mM Tris-HCl buffer solution (pH 7.4) containing 5 mM EDTA, 50 mM sodium pyrophosphate, 50 mM NaF, 100 mM orthovanadate, 1% Triton X-100, 1 mM phenylmethanesulfonyl fluoride (PMSF), […] of aprotinin, 1 μg/mL of pepstatin A, and 1 μg/mL of leupeptin was used. After lysing the cells, the lysates were obtained, and then centrifuged at 1,300×g and 4° C. for 20 minutes, and then the middle layer was taken as a protein layer in the cell extract. For the protein layer, the concentrations of proteins were quantified by the Bradford method. 40 μg of the quantified proteins were electrophoresed by SDS-PAGE, and then the separated proteins were transferred to nitrocellulose membranes (Amersham, Buckinghamshire, UK). Then, the membranes were washed three times for 10 minutes using a Tris-buffered saline and Tween 20 solution (TBS-T), followed by blocking using 10% skim milk for 60 minutes. […] Bands visualized on the X-ray film were scanned and quantified using Quantity One analysis software (Bio-Rad).

p-4E-BP1 protein = test: as above; assay type: cell-based, mouse; conditions: ethyl vanillin with dexamethasone vs dexamethasone control
Method: as §3

[4] = tested on: animal model with high-fat-diet-induced muscle loss; test: Fiber diameter of tibialis anterior muscle tissue (H&E staining); assay type: in vivo, C57BL/6N mice; conditions: 0.2% ethyl vanillin in high-fat diet, 10 weeks
Method: A normal diet group (Chow) was fed commercial rodent chow. Ethyl vanillin was purchased from Sigma-Aldrich. [table] Muscle tissues of mice were extracted, fixed in 10% formalin, and then stained with hematoxylin and eosin (H&E) after requesting Korea CFC (Gyeonggi-do, Korea) to do so, and observed using an optical microscope (IX71, Olympus, JPN) and photographed using a digital camera (DP71, Olympus, JPN). The statistical analysis of all data was performed using the Statistical Package for the Social Sciences (SPSS version 21.0, IBM, Armonk, N.Y., USA), and analysis values were expressed as mean±SEM, and a significant difference between groups was verified by ANOVA.

[5] = tested on: animal model with high-fat-diet-induced muscle loss; test: Grip test in mice fed a high-fat diet; assay type: in vivo, C57BL/6N mice; conditions: 0.2% ethyl vanillin in high-fat diet, week 10
Method: A normal diet group (Chow) was fed commercial rodent chow. Ethyl vanillin was purchased from Sigma-Aldrich. [table] To measure the grip strength of mice, grip strength was measured using four feet of the mice at week 10 of breeding. A force (N) for mice to hold a wire mesh was measured a total of five times using a grip strength measurer equipped with a wire mesh (20×10 cm) (Daejong Instrument Industry Co., Ltd., Korea), and a rest period of 1 minute or longer was given between measurements. Experimental results were obtained by dividing the measured force (N) by body weight (kg). The statistical analysis of all data was performed using the Statistical Package for the Social Sciences (SPSS version 21.0, IBM, Armonk, N.Y., USA), and analysis values were expressed as mean±SEM, and a significant difference between groups was verified by ANOVA.

**Q.** What does the source list for `CCOc1cc(C=O)ccc1O` [ethyl vanillin, 3-ethoxy-4-hydroxybenzaldehyde]?
**A.** increase in thickness of myotubes compared to reduction caused by dexamethasone ([1]; 100 μM ethyl vanillin along with 50 μM dexamethasone, 48 hours, C2C12 myotubes): 49%; number of myotubes of mouse myoblasts reduced by dexamethasone ([1]; treated with ethyl vanillin, vs dexamethasone): significantly increased; increase in holding impulse (hanging time x body weight) vs high-fat diet [2]: 147%; solubility in chloroform ([3]; chloroform): soluble; solubility in ethanol ([3]; ethanol): soluble; solubility in water ([3]; water): insoluble; expression of MaFbx/atrogin 1 (mRNA) (MaFbx/atrogin 1): significantly reducing; also recorded: significantly reduces; expression of Myostatin (mRNA) (Myostatin): significantly reducing; expression of MuRF1 (mRNA) (MuRF1): significantly reducing; also recorded: significantly reduces; amount of p-p70S6K1 protein (p-p70S6K1 protein): significantly increases; amount of p-4E-BP1 protein (p-4E-BP1 protein): significantly increases; increase in fiber diameter of the tibialis anterior vs high-fat diet [4]: 57%; increase in grip strength (force/body weight) vs high-fat diet [5]: 27%

Source: patent publication US11576875B2 (priority 2017, dated 2023)
